# US7902179B2, “Heterocyclic compounds” (Ajinomoto Co., Inc., priority 2001, dated 2011)
# System: TNF-α production from mouse peritoneal macrophage
# Experiment: Inhibition of TNF-α production from mouse peritoneal macrophage (LPS stimulation, ELISA)
# Format: cell-based
# Conditions: ICR mouse peritoneal cells, GM-CSF and IFN-γ 10 ng/ml, LPS 5 ng/ml, cultured 16 hrs, 50% suppression of TNF-α amount, read-out: IC50 (μM) Mo-TNF
# Procedure: Test for TNF-α Production or Inhibition of TNF-α Production from Mouse Peritoneal Macrophage Peritoneal cells were recovered from the peritoneal cavity of ICR mice (male, 5-7 weeks of age, Charles River) and sown in a 96-well half plate (Costar 3696) at a density of 1×10^5 cells per well. As the medium, RPMI-1640 containing 10% fetal calf serum was used and, using this medium, each reagent was prepared. Mouse GM-CSF (Peprotech) and mouse IFN-γ (Peprotech) were respectively added at a final concentration of 10 ng/ml, lipopolysaccharide (E. coli 0111: B4 LPS, DIFCO, lot 99078) was added at a final concentration of 5 ng/ml, and the compound of the present invention was added at 8 steps of dilution series by 3-fold dilution from the final concentration (300 μM), and cultured for 16 hrs. The concentration of TNF-α secreted into the culture supernatant was determined using a mouse TNF-α ELISA quantitative determination kit (Pharmingen, #2673KI) and the absorbance at 450 nm was measured using a V-max kinetic microplate reader (Molecular Devices). The concentration of the compound necessary for 50% suppression of TNF-α amount produced by lipopolysaccharide stimulation was taken as IC50 (μM).
row,SMILES,IC50
1,Nc1c2c(nn1-c1cccc(Cl)c1)CC(=O)NC2=O [Example 11],15.2 µM
2,Nc1c2c(nn1-c1ccc([N+](=O)[O-])cc1)CC(=O)NC2=O [Example 10],22.9 µM
3,CCOC(=O)Nc1cccc(-n2nc3c(c2N)C(=O)NC(=O)C3)c1 [Example 129],8.4 µM
4,CO/N=C1/C(=O)NC(=O)c2c1nn(-c1ccccc1)c2N [Example 143],26.2 µM
5,Nc1c2c(nn1CC1CCCCC1)CC(=O)NC2=O [Example 160],60.3 µM
6,Nc1c2c(nn1-c1c(Cl)cccc1Cl)CC(=O)NC2=O [Example 19],32.8 µM
7,O=C1Cc2nn(-c3ccccc3)c(N3CCCC3)c2C(=O)N1 [Example 186],14.7 µM
8,Nc1c2c(nn1Cc1ccccc1I)CC(=O)NC2=O [Example 180],8.7 µM
9,CC/C(C)=C1/C(=O)NC(=O)c2c1nn(-c1ccccc1)c2N [Example 88],9.9 µM
10,Nc1c2c(nn1-c1ccccn1)CC(=O)NC2=O [Example 13],5 µM
11,COc1cc(OC)c(/C=C2/C(=O)NC(=O)c3c2nn(-c2ccccc2)c3N)c(OC)c1 [Example 74],4.4 µM
12,CCCCCCn1nc2c(c1N)C(=O)NC(=O)C2 [Example 164],2.1 µM
13,Nc1c2c(nn1-c1ccccc1)/C(=C\c1c(F)c(F)c(F)c(F)c1F)C(=O)NC2=O [Example 133],0.3 µM
14,Nc1c2c(nn1C1CCCC1)CC(=O)NC2=O [Example 161],10.9 µM
15,Nc1c2c(nn1-c1ccccc1)/C(=C\c1ccco1)C(=O)NC2=O [Example 83],93.2 µM
16,Nc1c2c(nn1Cc1ccccc1O)CC(=O)NC2=O [Example 170],13.2 µM

row,SMILES,IC50
1,Nc1c2c(nn1-c1ccccc1)/C(=C\c1ccc(O)c(O)c1)C(=O)NC2=O [Example 56],3.3 µM
2,CCOC(=O)C(C)C1C(=O)NC(=O)c2c1nn(-c1ccccc1)c2N (centres unmarked) [Example 149],99.7 µM
3,Nc1c2c(nn1Cc1cccnc1)CC(=O)NC2=O [Example 176],3.5 µM
4,Nc1c2c(nn1-c1ccc(Cl)cc1)CC(=O)NC2=O [Example 12],11.8 µM
5,Nc1c2c(nn1C1CCOCC1)CC(=O)NC2=O [Example 159],26.9 µM
6,Nc1c2c(nn1-c1ccccc1)/C(=C\c1ccc(O)cc1)C(=O)NC2=O [Example 46],23.7 µM
7,O=C1Cc2nn(-c3ccccc3)c(I)c2C(=O)N1 [Example 27],28.3 µM
8,COc1cccc(/C=C2/C(=O)NC(=O)c3c2nn(-c2ccccc2)c3N)c1 [Example 72],80.5 µM
9,CCC(CC)Cn1nc2c(c1N)C(=O)NC(=O)C2 [Example 167],26.8 µM
10,Cc1cccc(-n2nc3c(c2N)C(=O)NC(=O)C3)c1 [Example 14],27.3 µM
11,Nc1c2c(nn1Cc1cccc3ccccc13)CC(=O)NC2=O [Example 172],83.1 µM
12,Nc1c2c(nn1-c1ccccc1)C(=C1CCOCC1)C(=O)NC2=O [Example 92],31.9 µM
13,Nc1c2c(nn1-c1ccc(F)cc1)CC(=O)NC2=O [Example 124],9.4 µM
14,COc1cccc(OC)c1/C=C1/C(=O)NC(=O)c2c1nn(-c1ccccc1)c2N [Example 73],5.6 µM
15,O=C1Cc2nn(-c3ccccc3)c(Br)c2C(=O)N1 [Example 26],15.1 µM

# Continued by falling IC50, values first:
row,IC50,SMILES
1,82.2 µM,Cn1nc2c(c1NCc1cccc(O)c1)C(=O)NC(=O)C2 [Example 112]
2,80.5 µM,COC(=O)CCn1nc2c(c1N)C(=O)NC(=O)C2 [Example 36]
3,79.1 µM,O=C1Cc2nn(-c3ccccc3)c(Sc3ccccc3)c2C(=O)N1 [Example 33]
4,78.5 µM,Nc1c2c(nn1-c1ccccc1)/C(=C\c1cccs1)C(=O)NC2=O [Example 82]
5,77.3 µM,O=C1Cc2nn(-c3ccccc3)c(-c3ccncc3)c2C(=O)N1 [Example 190]
6,32.7 µM,Cc1ccccc1/C=C1/C(=O)NC(=O)c2c1nn(-c1ccccc1)c2N [Example 49]
7,28 µM,O=C1Cc2nn(-c3ccccc3)cc2C(=O)N1 [Example 25]
8,23.9 µM,Cc1ccc(-n2nc3c(c2N)C(=O)NC(=O)C3)cc1 [Example 5]
9,20.1 µM,COc1cccc(-n2nc3c(c2N)C(=O)NC(=O)C3)c1 [Example 16]
10,18.4 µM,Nc1c2c(nn1-c1ccccc1)C1(CC1)C(=O)NC2=O [Example 98]
11,18 µM,Nc1c2c(nn1-c1cccc(F)c1)CC(=O)NC2=O [Example 9]
12,16.6 µM,O=C1Cc2nn(-c3ccccc3)c(NC3CCCCC3)c2C(=O)N1 [Example 187]
13,14.7 µM,CCC/C=C1/C(=O)NC(=O)c2c1nn(-c1ccccc1)c2N [Example 77]
14,13 µM,CCCC(CCC)n1nc2c(c1N)C(=O)NC(=O)C2 [Example 162]
15,10.8 µM,Nc1c2c(nn1-c1c(F)c(F)c(F)c(F)c1F)CC(=O)NC2=O [Example 125]
16,10.6 µM,CSCC/C=C1/C(=O)NC(=O)c2c1nn(-c1ccccc1)c2N [Example 78]

row,IC50,SMILES
1,9.7 µM,C/C=C1/C(=O)NC(=O)c2c1nn(-c1ccccc1)c2N [Example 86]
2,9 µM,Nc1c2c(nn1-c1ccccc1O)CC(=O)NC2=O [Example 153]
3,8.6 µM,CC(C)c1ccc(/C=C2/C(=O)NC(=O)c3c2nn(-c2ccccc2)c3N)cc1 [Example 52]
4,8.3 µM,CC(C)=C1C(=O)NC(=O)c2c1nn(-c1ccccc1)c2N [Example 135]
5,7.9 µM,CC(=O)Nc1ccc(/C=C2/C(=O)NC(=O)c3c2nn(-c2ccccc2)c3N)cc1 [Example 53]
6,7.8 µM,Nc1c2c(nn1-c1ccccc1)/C(=C\c1cccc(O)c1)C(=O)NC2=O [Example 57]
7,6.1 µM,Nc1ccc(/C=C2/C(=O)NC(=O)c3c2nn(-c2ccccc2)c3N)cc1 [Example 55]
8,5.8 µM,CCC(CC)n1nc2c(c1N)C(=O)NC(=O)C2 [Example 158]
9,4.5 µM,COc1ccccc1/C=C1/C(=O)NC(=O)c2c1nn(-c1ccccc1)c2N [Example 71]
10,4.3 µM,CCOC(=O)/C(C)=C1\C(=O)NC(=O)c2c1nn(-c1ccccc1)c2N [Example 136]
11,3.7 µM,Nc1c2c(nn1-c1ccccc1)/C(=C\c1ccc(C(=O)O)cc1)C(=O)NC2=O [Example 60]
12,3.5 µM,Nc1c2c(nn1-c1ccccc1)CC(=O)NC2=O [Example 21]
13,3.5 µM,Nc1c2c(nn1-c1ccccc1)/C(=C\C1=COc3ccc(O)cc3C1)C(=O)NC2=O [Example 66]
14,3.5 µM,Cn1ccnc1/C=C1/C(=O)NC(=O)c2c1nn(-c1ccccc1)c2N [Example 64]
15,2.6 µM,CC1(C)CCC(n2nc3c(c2N)C(=O)NC(=O)C3)CC1 [Example 163]
